Laboratory results: patent US10238688B2, “Combination therapies for bladder cancer” (GENEDIA BIOTECH CO. LTD., priority 2015, dated 2019)

Assays:
Format in all cases: cell-based, human
Hypoxia pathway = assay: Cignal Finder dual-luciferase pathway reporter, Hypoxia; parameters: key to Relative activity, Hypoxia reporter: firefly/renilla ratio, background (negative control) subtracted; conditions: for Relative activity, Hypoxia reporter: luc/Renluc relative to negative control reporter, single drug at 4 folds vs EH/Ci/Mi combination
Protocol: (§1) The pathway analysis was performed with Qiagen's Cignal Finder Pathway Reporter Array systems according to the manufacturer's instructions. The pathway-focused dual-luciferase reporter construct was a mixture of an inducible transcription factor responsive firefly luciferase reporter and constitutively expressing renilla construct. Transcriptional response element (TRE) sequence response elements to each specific transcriptional factor triggered by the different signaling pathways are positioned before the TATA box of firefly luciferase reporter gene. The extent of activity of the reporter reflects the level of activity of the particular signaling pathway. CMV controlled renilla expression vector is co-transfected into the cell as an internal control. Non-inducible reporter construct that lacks the transcriptional factor binding sequence and could not be induced by any transcription factors is used as a negative control. Cells transfected with CMV directed firefly luciferase reporter gene serve as a positive control. Briefly, cells seeded in 6-well plates were transfected with Cignal finder pathway arrays according to the manufacturer's instructions (Qiagen). Then cells were seeded onto 96-well plates. Ci (6000 ng/mL), Mi (800 ng/mL), or EH (1000 ng/mL) and Ci/Mi/EH combination (Ci, 1500 ng/mL, Mi, 800 ng/mL and EH, 1000 ng/m L) were then added to the cells 24 h post-transfection. After 6 h of incubation with the different drugs at 37° C., cells were lysed and a dual luciferase assay (for firefly and renilla luciferase) was performed using a PromegaGloMax 20/20 illuminometer. The firefly luciferase activities were normalized over the renilla luciferase activities after background activity determined by luciferase activities of negative controls was subtracted. A triple test of cell survival under these drug doses was also performed by MTT assay following 18 h incubation at 37° C. […]

SCaBER = assay: MTT cell survival / IC50, SCaBER squamous carcinoma cells
Protocol: (§2) The clinical grade of the chemotherapeutics (NCI Dictionary of Cancer Terms) was provided by the First Affiliated Hospital of Harbin Medical University: Pirarubicin (Pi, Wanle, Shenzhen), Paclitaxel (Pa, Taiji, Sichuan), Adriamycin (Ad, Pfizer, Jiangsu), Epirubicin Hydrochloride (EH, Haizheng, Zhejiang), Hydroxycamptothecin (Hy, Lishizhen, Hubei), Cisplatin (Ci, Haosen, Jiangsu), Gemcitabine (Ge, Haosen, Jiangsu) and Mitomycin (Mi, Haizheng, Zhejiang). The drug induced cell death was determined by a thiazolyl […] (MTT, 490 nm reading) based cell proliferation assay in the cultured cells following treatment by various concentrations of drugs for 72 hours. The relative chemoresistance to each drug of all cell lines was calculated with the lowest IC50 as a reference. The overall chemoresistance of each cell line was described as “chemoresistance index”, the numerator of the total relative IC50 to all the drugs over the number of drugs to rank the overall resistance state of each cell line to the six chemotherapeutics collectively.
(§3) The relative IC50 (fold) of each drug of all nine cell lines was normalized to the lowest IC50 in the most sensitive cell line (FIG. 2G), to describe the single drug resistance of cell lines. The overall chemoresistance of each cell line, a “chemoresistance index” (the numerator of the total relative IC50 over the number of drugs) (FIG. 2G) were calculated to rank the overall resistance state of each cell line to this six chemotherapeutics.

[1] = tested on: bladder cancer cell lines; assay: Average cumulative cell survival (ACS) over the panel of cell lines tested
Protocol: as §2
The “Differential Evolution” algorithm guided experimental optimization (DE) consisted of three iterative operations: generating drug combinations of experimental testing, acquiring the efficacy of the generated drug combinations with biological assays and recalculating further improved drug combinations using a feedback search algorithm. This example first tested twenty drug combinations at randomized doses. These drug combinations were generated from a random integer matrix generator, coded in MATLAB™ language. These twenty drug combinations were then experimentally tested for cancer cell cytotoxicity. The experimental data were then subjected to calculation with a DE algorithm for new drug combinations based on three major mathematical calculations: “Mutation”, “Crossover” and “Selection”. The equations for each step can be found in the main test. The equations for each step are coded in MATLAB™ language.
Twenty six-drug combinations at the indicated doses were initially generated through a random number generator (using MATLAB MathWorks©, Natick, Mass., U.S.) (The upper half of Table 1). The cell survival (% over the not drug control) of treated cells was determined and then used for a calculation of the average cumulative cell survival (%, ACS: the sum of cell survival (%) per combination divided by the number of cell lines tested). ACS<30% was used to separate the effective from the not-effective combinations. Nine of the twenty combinations tested in the 1st round of iteration fell into this category (the lower half of Table 1).

MAPK/ERK pathway = assay: Cignal Finder dual-luciferase pathway reporter, MAPK/ERK; conditions: for Relative activity, MAPK/ERK reporter: luc/Renluc relative to negative control reporter, single drug at 4 folds vs EH/Ci/Mi combination
Protocol: as §1

T24 = assay: MTT cell survival / IC50, T24 cells
Protocol: as §2, §3
Twenty six-drug combinations at the indicated doses were initially generated through a random number generator (using MATLAB MathWorks©, Natick, Mass., U.S.) (The upper half of Table 1). The cell survival (% over the not drug control) of treated cells was determined and then used for a calculation of the average cumulative cell survival (%, ACS: the sum of cell survival (%) per combination divided by the number of cell lines tested). ACS<30% was used to separate the effective from the not-effective combinations.

[2] = Table S3, ng/ml: Pi 40, Pa 160, EH 250, Ci 1500, Mi 200, 1=Ci/Mi, 2=EH/Ci/Mi, 3=Pa/Ci/Mi, 4=Pi/Ci/Mi
[3] = ng/ml: EH 1000, Ci 6000, Mi 800, Pi 160, Pa 640, Ge 20, EH/Ci/Mi regimen

With `N.N.[Cl][Pt][Cl]` [Ci, (SP-4-2)-diamminedichloroplatinum(II)] the “relative drug trigged pathway activity over the no-drug level, Hypoxia” value (Hypoxia pathway; 5637 cells) was 1.64 fold, the “Relative activity, Hypoxia reporter” value (Hypoxia pathway; 5637 cells) was 37.36 and the “digitalized pathway activity, Hypoxia” value (Hypoxia pathway; Biu87 cells) was 0 (null (0) if neither of the above holds). The “relative drug trigged pathway activity over the no-drug level, Hypoxia” value (Hypoxia pathway; Biu87 cells) was 1.32 fold, the “Relative activity, Hypoxia reporter” value (Hypoxia pathway; Biu87 cells) was 10.01 and the “relative drug trigged pathway activity over the no-drug level, Hypoxia” value (Hypoxia pathway; H-bc cells) was 0.39 fold. The “Relative activity, Hypoxia reporter” value (Hypoxia pathway; H-bc cells) was 49.11, the “digitalized pathway activity, Hypoxia” value (Hypoxia pathway; SV-HUC-1 cells) was 0 (null (0) if neither of the above holds) and the “relative drug trigged pathway activity over the no-drug level, Hypoxia” value (Hypoxia pathway; SV-HUC-1 cells) was 1.19 fold. The “Relative activity, Hypoxia reporter” value (Hypoxia pathway; SV-HUC-1 cells) was 30.20, the “digitalized pathway activity, Hypoxia” value (Hypoxia pathway; UM-UC-3 cells) was 0 (null (0) if neither of the above holds) and the “Relative activity, Hypoxia reporter” value (Hypoxia pathway; UM-UC-3 cells) was 41.68. The “relative drug trigged pathway activity over the no-drug level, Hypoxia” value (Hypoxia pathway; Um-Uc-3 cells) was 0.66 fold, the “Cell survival (%)” value (SCaBER; [2]) was 22.05% and the “Single drug 4X Cell Survival (%)” value (SCaBER; [3]) was 5.58%. The “ACS (%)” value ([1]; eight cell lines, Table S3, ng/ml: Pi 40, Pa 160, EH 250, Ci 1500, Mi 200, 1=Ci/Mi, 2=EH/Ci/Mi, 3=Pa/Ci/Mi, 4=Pi/Ci/Mi) was 22.9%, the ACS ([1]; four-fold dosed component drugs alone: Ci 6000 ng/mL, Mi 800 ng/mL, EH 1000 ng/mL (Table S4)) was 16.60% and the “ACS (%) for cancer cells” value ([1]; seven cancer cell lines, ng/ml: EH 1000, Ci 6000, Mi 800, Pi 160, Pa 640, Ge 20, EH/Ci/Mi regimen) was 9.11%. The “relative drug trigged pathway activity over the no-drug level, MAPK/ERK” value (MAPK/ERK pathway; 5637 cells) was 1.74 fold, the “Relative activity, MAPK/ERK reporter” value (MAPK/ERK pathway; 5637 cells) was 90.77 and the “digitalized pathway activity, MAPK/ERK” value (MAPK/ERK pathway; Biu87 cells) was 0 (null (0) if neither of the above holds). For the same compound, the “relative drug trigged pathway activity over the no-drug level, MAPK/ERK” value (MAPK/ERK pathway; Biu87 cells) was 0.66 fold, the “Relative activity, MAPK/ERK reporter” value (MAPK/ERK pathway; Biu87 cells) was 321.19 and the “digitalized pathway activity, MAPK/ERK” value (MAPK/ERK pathway; H-bc cells) was 0 (null (0) if neither of the above holds). For the same compound, the “relative drug trigged pathway activity over the no-drug level, MAPK/ERK” value (MAPK/ERK pathway; H-bc cells) was 0.71 fold, the “Relative activity, MAPK/ERK reporter” value (MAPK/ERK pathway; H-bc cells) was 340.57 and the “relative drug trigged pathway activity over the no-drug level, MAPK/ERK” value (MAPK/ERK pathway; SV-HUC-1 cells) was 1.65 fold. For the same compound, the “Relative activity, MAPK/ERK reporter” value (MAPK/ERK pathway; SV-HUC-1 cells) was 389.00, the “digitalized pathway activity, MAPK/ERK” value (MAPK/ERK pathway; UM-UC-3 cells) was 0 (null (0) if neither of the above holds) and the “Relative activity, MAPK/ERK reporter” value (MAPK/ERK pathway; UM-UC-3 cells) was 72.05. For the same compound, the “relative drug trigged pathway activity over the no-drug level, MAPK/ERK” value (MAPK/ERK pathway; Um-Uc-3 cells) was 0.51 fold, the “Cell survival (%)” value (T24; [2]) was 15.46% and the “Single drug 4X Cell Survival (%)” value (T24; [3]) was 10.49%.
